According to patent US12685731B2, “Organic compounds” (INTRA-CELLULAR THERAPIES, INC., priority 2018, dated 2026):
Read-outs that look alike come from different tables or passages of the source.

Tests used:
[1] = system: dopamine receptor (e.g., D2); test: Receptor binding studies, dopamine receptor
[2] = Measurement of parent and metabolite levels in mice (plasma and brain levels after single oral co-dosing); assay type: in vivo; conditions: for Cmax / Tmax / AUC / concentration at […] / concentration at 0.5 h / concentration at 1 h / concentration at 2 h / concentration at 4 h: mouse, single dose oral, co-dosed; for AUC: 0.25-4 hr sampling; for concentration at […]: 0.25 hr
Procedure: The compound of Example 1 and the compound of Formula Q are co-dosed in mice (n=3), and the levels of the both compounds are studied. Procedures for the synthesis of the compound of Formula Q can be found in WO 2008/112280. […] The mean values for maximum concentration, time to maximum concentration, and Area Under the Curve (AUC) for both compounds is determined.

serotonin transporter = serotonin transporter (Homo sapiens, UniProt P31645); test: Receptor binding studies, serotonin transporter
[3] = system: serotonin receptor (e.g., 5-HT2A); test: Receptor binding studies, serotonin receptor
[4] = mean n=3, brain, read-out: Brain level
[5] = mean n=3, plasma, read-out: Plasma level

serotonin transporter, sequence (P31645 whole entry): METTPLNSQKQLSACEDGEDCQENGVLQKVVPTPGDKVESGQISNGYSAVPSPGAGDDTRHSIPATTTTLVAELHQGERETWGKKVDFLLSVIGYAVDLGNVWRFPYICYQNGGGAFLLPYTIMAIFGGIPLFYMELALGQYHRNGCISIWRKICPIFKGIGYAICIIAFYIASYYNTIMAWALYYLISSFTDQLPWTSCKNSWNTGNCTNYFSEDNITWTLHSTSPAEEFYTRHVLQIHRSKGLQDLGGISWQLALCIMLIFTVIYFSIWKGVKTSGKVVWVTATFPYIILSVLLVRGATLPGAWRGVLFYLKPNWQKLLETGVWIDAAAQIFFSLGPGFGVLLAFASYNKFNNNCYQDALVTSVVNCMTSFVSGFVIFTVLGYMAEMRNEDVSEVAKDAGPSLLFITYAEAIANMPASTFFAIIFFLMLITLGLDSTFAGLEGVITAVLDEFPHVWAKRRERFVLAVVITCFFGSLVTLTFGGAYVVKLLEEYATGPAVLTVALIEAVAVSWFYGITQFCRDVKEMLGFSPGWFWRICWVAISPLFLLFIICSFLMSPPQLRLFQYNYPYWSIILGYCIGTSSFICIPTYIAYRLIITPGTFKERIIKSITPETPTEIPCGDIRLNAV

| Metabolic clearance compared to the compound of Formula Q ([2]; concluded from higher Cmax and AUC values) | Cmax ([2]; brain) [ng/g] | Tmax ([2]; brain) [min] | AUC ([2]; brain) [ng·h/mL] | concentration at […] [2, 4] [ng/g] | concentration at 0.5 h [2, 4] [ng/g] | concentration at 1 h [2, 4] [ng/g] | concentration at 2 h [2, 4] [ng/g] | concentration at 4 h [2, 4] [ng/g] | concentration at […] [2, 5] [ng/mL] | concentration at 0.5 h [2, 5] [ng/mL] | concentration at 1 h [2, 5] [ng/mL] | concentration at 2 h [2, 5] [ng/mL] | concentration at 4 h [2, 5] [ng/mL] | Cmax ([2]; plasma) [ng/mL] | Tmax ([2]; plasma) [min] | AUC ([2]; plasma) [ng·h/mL] | Structure (SMILES) | Receptor binding profile compared to the compound of Formula Q [1] | Receptor binding profile compared to the compound of Formula Q (serotonin transporter) | Receptor binding profile compared to the compound of Formula Q [3] |
| --- | --- | --- | --- | --- | --- | --- | --- | --- | --- | --- | --- | --- | --- | --- | --- | --- | --- | --- | --- | --- |
| reduced metabolic clearance | 402 | 30 | 404 | 238 | 402 | 39.4 | 67.7 | 62.1 | 30.4 | 38.1 | 11.6 | 31.4 | 16.8 | 38.1 | 30 | 94.5 | [2H]C1([2H])N(C)c2cccc3c2N([C@H]2CCN(CCCC(=O)c4ccc(F)cc4)C[C@@H]32)C1([2H])[2H] [Example 1, 1-(4-fluorophenyl)-4-((6bR,10aS)-1,1,2,2-tetradeuterio-3-methyl-2,3,6b,7,10,10a-hexahydro-1H-pyrido[3′,4′:4,5]pyrrolo[1,2,3-de]quinoxalin-8(9H)-yl) butan-1-one p-toluenesulfonate] | substantially the same receptor binding profile | substantially the same receptor binding profile | substantially the same receptor binding profile |
|  | 384 | 30 | 387 | 228 | 384 | 37.9 | 65.6 | 58.8 | 28.2 | 34.9 | 11 | 29.9 | 16.3 | 34.9 | 30 | 89.5 | CN1CCN2c3c(cccc31)[C@@H]1CN(CCCC(=O)c3ccc(F)cc3)CC[C@@H]12 [Formula Q, reference compound] |  |  |  |
